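These data come from cells grown in 96-well plates and exposed to compound for 48 hours at five concentrations. GI50: concentration for 50% inhibition of growth. Definition used: TGI = concentration required for complete inhibition of growth.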
Tests used:
Assay in all cases: NCI tumour cell line growth inhibition, 48 h
[1] = tested on: SNB-75 CNS
[2] = tested on: NCI/ADR-RES ovarian
[3] = tested on: OVCAR-5 ovarian
[4] = tested on: SK-MEL-5 melanoma
[5] = tested on: EKVX NSCLC
[6] = tested on: LOX IMVI melanoma
[7] = tested on: OVCAR-3 ovarian
[8] = tested on: SN12C renal
[9] = tested on: HOP-92 NSCLC
[10] = tested on: T-47D breast
[11] = tested on: OVCAR-4 ovarian
[12] = tested on: MOLT-4 leukemia
[13] = tested on: HCT-15 colon
[14] = tested on: SF-539 CNS
[15] = tested on: COLO 205 colon
[16] = tested on: HOP-62 NSCLC
[17] = tested on: KM12 colon
[18] = tested on: SNB-19 CNS
[19] = tested on: HT29 colon
[20] = tested on: M14 melanoma
[21] = tested on: SW-620 colon
[22] = tested on: MALME-3M melanoma
[23] = tested on: PC-3 prostate
[24] = tested on: UACC-62 melanoma
[25] = tested on: RPMI-8226 leukemia
[26] = tested on: CCRF-CEM leukemia
[27] = tested on: UACC-257 melanoma
[28] = tested on: K-562 leukemia
[29] = tested on: RXF 393 renal
[30] = tested on: HCT-116 colon
[31] = tested on: NCI-H460 lung
[32] = tested on: NCI-H23 lung
[33] = tested on: U251 CNS
[34] = tested on: SR leukemia
[35] = tested on: TK-10 renal
[36] = tested on: CAKI-1 renal
[37] = tested on: SK-MEL-28 melanoma
[38] = tested on: SF-295 CNS
[39] = tested on: HCC-2998 colon
[40] = tested on: BT-549 breast
[41] = tested on: NCI-H522 lung
[42] = tested on: DU-145 prostate
[43] = tested on: MCF7 breast
[44] = tested on: OVCAR-8 ovarian
[45] = tested on: MDA-MB-231 breast
[46] = tested on: SK-MEL-2 melanoma
[47] = tested on: SF-268 CNS
[48] = tested on: NCI-H226 lung
[49] = tested on: A498 renal
[50] = tested on: SK-OV-3 ovarian
[51] = tested on: UO-31 renal
[52] = tested on: MDA-MB-435
[53] = tested on: HL-60(TB) leukemia
[54] = tested on: A549 NSCLC
[55] = tested on: HS 578T breast
[56] = tested on: IGROV1 ovarian
[57] = tested on: ACHN renal
[58] = tested on: 786-0 renal

Compound: CC(C)c1ccc2c(c1)CCC1C2CCCC1(C)NCc1ccccc1 (stereo unspecified)
- GI50 [1]: 8.77 µM
- TGI [1]: 21.3 µM
- GI50 [2]: 5.84 µM
- TGI [2]: 19.9 µM
- GI50 [3]: 3.48 µM
- TGI [3]: 13.6 µM
- GI50 [4]: 1.82 µM
- TGI [4]: 3.35 µM
- GI50 [5]: 10.7 µM
- TGI [5]: 24.6 µM
- GI50 [6]: 2.27 µM
- TGI [6]: 7.12 µM
- GI50 [7]: 9.34 µM
- TGI [7]: 24.4 µM
- GI50 [8]: 5.56 µM
- TGI [8]: 19.2 µM
- GI50 [9]: 1.95 µM
- TGI [9]: 4.13 µM
- GI50 [10]: 2.22 µM
- TGI [10]: 4.63 µM
- GI50 [11]: 7.26 µM
- TGI [11]: 19.8 µM
- GI50 [12]: 3.25 µM
- TGI [12]: 12.1 µM
- GI50 [13]: 2.87 µM
- TGI [13]: 9.05 µM
- GI50 [14]: 5.5 µM
- TGI [14]: 18.5 µM
- GI50 [15]: 0.332 µM
- TGI [15]: 1.11 µM
- GI50 [16]: 8.94 µM
- TGI [16]: 21.4 µM
- GI50 [17]: 3.07 µM
- TGI [17]: 11.6 µM
- GI50 [18]: 12.8 µM
- TGI [18]: 26.4 µM
- GI50 [19]: 0.78 µM
- TGI [19]: 2.7 µM
- GI50 [20]: 1.97 µM
- TGI [20]: 3.71 µM
- GI50 [21]: 2.17 µM
- TGI [21]: 6.1 µM
- GI50 [22]: 1.92 µM
- TGI [22]: 4.18 µM
- GI50 [23]: 6.06 µM
- TGI [23]: 19.3 µM
- GI50 [24]: 1.96 µM
- TGI [24]: 4.39 µM
- GI50 [25]: 2.02 µM
- TGI [25]: 4.98 µM
- GI50 [26]: 5.32 µM
- TGI [26]: 27.9 µM
- GI50 [27]: 2.52 µM
- TGI [27]: 6.13 µM
- GI50 [28]: 1.46 µM
- TGI [28]: 10.9 µM
- GI50 [29]: 2.44 µM
- TGI [29]: 4.66 µM
- GI50 [30]: 4.21 µM
- TGI [30]: 14.7 µM
- GI50 [31]: 3.43 µM
- TGI [31]: 12.9 µM
- GI50 [32]: 5.48 µM
- TGI [32]: 19.7 µM
- GI50 [33]: 4.69 µM
- TGI [33]: 15.8 µM
- GI50 [34]: 1.8 µM
- TGI [34]: 6.3 µM
- GI50 [35]: 2.71 µM
- TGI [35]: 7.19 µM
- GI50 [36]: 3.22 µM
- TGI [36]: 15.3 µM
- GI50 [37]: 1.98 µM
- TGI [37]: 3.83 µM
- GI50 [38]: 2.17 µM
- TGI [38]: 6.17 µM
- GI50 [39]: 0.608 µM
- TGI [39]: 2.01 µM
- GI50 [40]: 8.42 µM
- TGI [40]: 20.8 µM
- GI50 [41]: 1.68 µM
- TGI [41]: 3.55 µM
- GI50 [42]: 8.61 µM
- TGI [42]: 24.3 µM
- GI50 [43]: 2.53 µM
- TGI [43]: 6.76 µM
- GI50 [44]: 13.5 µM
- TGI [44]: 28.9 µM
- GI50 [45]: 3.31 µM
- TGI [45]: 12.4 µM
- GI50 [46]: 2.04 µM
- TGI [46]: 4.16 µM
- GI50 [47]: 8.98 µM
- TGI [47]: 26.1 µM
- GI50 [48]: 5.38 µM
- TGI [48]: 18.4 µM
- GI50 [49]: 11.5 µM
- TGI [49]: 24.5 µM
- GI50 [50]: 14.3 µM
- TGI [50]: 27.6 µM
- GI50 [51]: 6.76 µM
- TGI [51]: 21.1 µM
- GI50 [52]: 2.79 µM
- TGI [52]: 9.64 µM
- GI50 [53]: 2.34 µM
- TGI [53]: 6.85 µM
- GI50 [54]: 15.5 µM
- TGI [54]: 31.1 µM
- GI50 [55]: 4.99 µM
- TGI [55]: 23.7 µM
- GI50 [56]: 6.43 µM
- TGI [56]: 20.7 µM
- GI50 [57]: 10 µM
- TGI [57]: 22.7 µM
- GI50 [58]: 2.43 µM
- TGI [58]: 5.61 µM

From PubChem BioAssay (NCI)
